These results are taken from US8357634B2, “N-alkoxycarboxamides and their use as microbiocides” (Syngenta Crop Protection LLC, priority 2009, dated 2013).

Series [1] relates to Blumeria graminis f. sp. tritici (Erysiphe graminis f. sp. tritici). Description: Example B-9: Blumeria graminis f. sp. tritici / wheat / leaf disc preventive (comparative). The series is classed as in vivo. The following applies: 4 dpi. As to the method:
Blumeria graminis f. sp. tritici (Erysiphe graminis f. sp. tritici)/Wheat/Leaf Disc Preventive (Powdery mildew on wheat) Wheat leaf segments were placed on agar in a multiwell plate (24-well format) and sprayed with test solutions. After drying, the leaf disks were inoculated with a spore suspension of the fungus. After appropriate incubation the activity of a compound was assessed 4 dpi (days after inoculation) as preventive fungicidal activity.

The test system of series [2] is Mycosphaerella praminicola (Seotoria tritici). Description: Example B-16: Mycosphaerella graminicola (Septoria tritici) / liquid culture (comparative). Format: cell-based. The following applies: 96 h, 24° C., photometric after 4 days, read-out: inhibition of growth. As to the method: Mycosphaerella praminicola (Seotoria tritici)/Liquid Culture (Septoria Blotch) Conidia of the fungus from cryogenic storage were directly mixed into nutrient broth (PDB potato dextrose broth). After placing a (DMSO) solution of the test compounds into a microtiter plate (96-well format) the nutrient broth containing the fungal spores was added. The test plates were incubated at 24° C. and the inhibition of growth is measured photometrically after 4 days.

Series [3] has as its system Botrvtis cinerea. Description: Example B-1: Action against Botrytis cinerea, fungal growth assay. The series is classed as cell-based. Conditions: 0.002% active ingredient, PDB broth, 24° C., photometric after 3-4 days.
For series [4], the system named is Mycosphaerella arachidis (Cercospora arachidicola). As to the kind of experiment: Example B-2: Action against Mycosphaerella arachidis, fungal growth assay. Format: cell-based. The following applies: 0.002% active ingredient, PDB broth, 24° C., photometric after 6-7 days.
Series [5] deals with Septoria tritici. Description: Example B-3: Action against Septoria tritici, fungal growth assay. The series is classed as cell-based. The following applies: Zymoseptoria tritici; 0.002% active ingredient; PDB broth, 24° C., photometric after 72 hrs.
Series [6] deals with Monographella nivalis (anamorph: Fusarium nivale, Microdochium nivale). Description: Example B-4: Action against Monographella nivalis, fungal growth assay. Format: cell-based. Conditions: 0.002% active ingredient, PDB broth, 24° C., photometric after 72 hrs. As to the method:
Action Against Monographella nivalis (anamorph: Fusarium nivale, Microdochium nivale; Snow Mould)—Fungal Growth Assay Conidia of the fungus from cryogenic storage were directly mixed into nutrient broth (PDB potato dextrose broth). After placing a DMSO-solution of the test compounds (0.002% active ingredient) into a microtiter plate (96-well format) the nutrient broth containing the fungal spores was added. The test plates were incubated at 24° C. and the inhibition of growth was measured photometrically after 72 hrs (0=no growth inhibition, ratings of 80% to 99% mean good to very good inhibition, 100%=complete inhibition).

Series [7] relates to Phaeosphaeria nodorum (Septoria nodorum). Description: Example B-11: Phaeosphaeria nodorum / wheat / leaf disc preventative (comparative). The series is classed as in vivo. Conditions: 4 dpi. On the procedure: Phaeosphaeria nodorum (Septoria nodorum)/Wheat/Leaf Disc Preventative (Glume Blotch) Wheat leaf segments were placed on agar in a multiwell plate (24-well format) and sprayed with test solutions. After drying, the leaf disks were inoculated with a spore suspension of the fungus. After appropriate incubation the activity of a compound was assessed 4 dpi (days after inoculation) as preventive fungicidal activity.

The subject of series [8] is Pyrenophora teres. Description: Example B-8: Action against Pyrenophora teres (net blotch) on barley leaf segments. The series is classed as in vivo. Conditions: foliar, 96 h, 0.02% active ingredient, 4 days after inoculation, read-out: preventive fungicidal activity (inhibition). As to the method: Action Against Pyrenophora teres (Net Blotch) on Barley Barley leaf segments were placed on agar in multiwell plates (24-well format) and sprayed with test solutions (0.02% active ingredient). After drying, the leaf disks were inoculated with a spore suspension of the fungus. After appropriate incubation the activity of a compound was assessed 4 days after inoculation as preventive fungicidal activity.

In series [9] the test system is Gaeumannomyces graminis. As to the kind of experiment: Example B-17: Gaeumannomyces graminis / liquid culture (comparative). Format: cell-based. Conditions: 24 C, photometric after 2-3 days, read-out: inhibition of growth. On the procedure: Gaeumannomyces graminis/Liquid Culture (Take-All of Cereals) Mycelial fragments of the fungus from cryogenic storage were directly mixed into nutrient broth (PDB potato dextrose broth). After placing a (DMSO) solution of the test compounds into a microtiter plate (96-well format) the nutrient broth containing the fungal spores was added. The test plates were incubated at 24 C and the inhibition of growth was determined photometrically after 2-3 days.

For series [10], the system named is Alternaria solani. Description: Example B-13: Alternaria solani / tomato / leaf disc (comparative). The series is classed as in vivo. The following applies: 4 dpi. As to the method:
Alternaria solani/Tomato/Leaf Disc (Early Blight) Tomato leaf disks were placed on water agar in multiwell plates (24-well format) and sprayed with test solutions. After drying, the leaf disks were inoculated with a spore suspension of the fungus. After appropriate incubation the activity of a compound was assessed 4 dpi (days after inoculation) as preventive fungicidal activity.

The test system of series [11] is Mycosphaerella arachidis (Cercospora arachidicola). Description: Example B-15: Mycosphaerella arachidis / liquid culture (comparative). Conditions: 24° C., photometric after 6-7 days, read-out: inhibition of growth. The series is classed as cell-based. On the procedure:
Mycosphaerella arachidis (Cercospora arachidicola)/Liquid Culture (Early Leaf Spot) Conidia of the fungus from cryogenic storage were directly mixed into nutrient broth (PDB potato dextrose broth). After placing a (DMSO) solution of the test compounds into a microtiter plate (96-well format) the nutrient broth containing the fungal spores was added. The test plates were incubated at 24° C. and the inhibition of growth is measured photometrically after 6-7 days.

For orientation: inhibition means the share of the control response that was lost under treatment. By melting point is commonly meant the temperature of the solid-liquid transition. Compound `CON(C(=O)c1cn(C)nc1C(F)F)C(C)c1ccc(Cl)cc1Cl` (stereo not drawn) [Compound 1.023] came in with a melting point of 135 to 141 °C. In series [1] (20 ppm), this compound gave a preventive fungicidal activity of 90. Moreover, the preventive fungicidal activity in series [1] (60 ppm) amounted to 100. In series [1] (200 ppm), this compound came in with a preventive fungicidal activity of 100. In addition, the inhibition at 6 ppm in series [2] (6 ppm) stood at 100%. Further, the inhibition at 20 ppm in series [2] (20 ppm) is 100%. The inhibition at 60 ppm in [2] (60 ppm) came to 100%. Moreover, the inhibition at 0.002 % strength in series [3] was no less than 80%. The inhibition at 0.002 % strength in series [4] was no less than 80%. In series [5], this compound gave an inhibition at 0.002 % strength of no less than 80%. For the same compound, in series [6], the inhibition at 0.002 % strength was no less than 50%. For the same compound, the preventive fungicidal activity in series [7] (20 ppm) is on record as 70. In series [7] (60 ppm), this compound came in with a preventive fungicidal activity of 90. The same compound had a preventive fungicidal activity in [7] (200 ppm) of 90. Further, the inhibition at 0.02 % strength in [8] is no less than 80%. Further, the inhibition at 6 ppm in series [9] (6 ppm) was determined as 0%. The inhibition at 20 ppm in series [9] (20 ppm) was determined as 0%. Further, the inhibition at 60 ppm in [9] (60 ppm) amounted to 50%. Besides, the preventive fungicidal activity in series [10] (20 ppm) is on record as 90. For the same compound, the preventive fungicidal activity in series [10] (60 ppm) stood at 100. The preventive fungicidal activity in series [10] (200 ppm) is reported as 100. The inhibition at 6 ppm in [11] (6 ppm) was found to be 100%. Also, in series [11] (20 ppm), the inhibition at 20 ppm came out at 100%. Further, the inhibition at 60 ppm in series [11] (60 ppm) amounted to 100%.
